Read-outs that look alike come from different tables or passages of the source.

Experimental findings from patent publication US11246929B2, “Combination of a protein kinase inhibitor and an additional chemotherapeutic agent” (Merck Patent GmbH, priority 2016, dated 2022) are described below.

Data set [1] deals with human NCI-H526 SCLC xenograft. Nature of the data set: NCI-H526 SCLC xenograft, combination with etoposide/cisplatin. In kind it is in vivo. The procedure:
The mice were acclimatized to the housing conditions for 1 week. […] Bedding consisted of aspen chips (E. Becker, Castrop-Rauxel). Room temperature was 24+/−2° C. and relative humidity was 50+/−10% at 15 air changes per hour. Drinking water (provided ad libitum) was supplemented with 1 mg/mL Chlorine and was adjusted to a pH of 6.5 with HCl. Sterile high protein maintenance diet for immunodeficient mice (Ssniff, Soest, product No V1244-72, γ-sterilized) was also provided ad libitum. The light cycle was set at 12 hrs light and 12 hrs darkness. Details of the study protocol are as follows:
Then the cell suspension (100 μL/animal) was subcutaneously inoculated in the right flank of immunodeficient CD1 mice.
Tumor measurements and calculations: When the tumors reached a volume of 96-214 mm^3 the animals were randomized into 7 treatment groups with 10 animals each. Tumor length (L) and width (W) were measured twice weekly by calipers. The tumor volume was calculated using the formula L×W2/2. Data were collected in Study Advantage™ (data collection system).
Treatment: dosing and scheduling per above.
T/C-value: The ability of a treatment to inhibit tumor growth was assessed at the end of each study by calculating the % T/C value according to following formulas: % T/C delta>0 calculation (mean): [(end tumor volume treatment−start tumor volume treatment)/(end tumor volume control−start tumor volume control)]×100] % T/C delta≤0 (regression) calculation (mean): [(end tumor volume treatment−start tumor volume treatment)/start tumor volume treatment]×100
Toxicity: The bodyweight change in % denotes the difference between the weight at start of treatment and the end of treatment. Changes of bodyweight during the treatment course are particularly important as it is considered a measure for presence or absence of treatment-related toxicity. A dosage producing a 20% body weight change (mean of group) or ≥10% drug deaths was considered an excessively toxic dosage. Animal body weights included the tumor weights.
Animals were treated with three 1-week cycles of chemotherapy consisting of Cisplatin (3 mg/kg once weekly) and Etoposide (4 mg/kg for three consecutive days per week).

Data set [2] concerns panel of 93 cell lines. Nature of the data set: SRB growth inhibition, 93 cell lines panel (summary). In kind it is cell-based. The procedure: 90 μl of cells, after a 48-hour pre-growth period, were treated by mixing with 10 μl of the compound-containing media (resulting in a final DMSO concentration of 0.1%).
This is the drug concentration causing a 50% reduction compared to the net protein increase in control cells during the drug incubation period. In other words, G150 is IC50 corrected for time zero. […] TGI was calculated from Ti=Tz. […] It was calculated as 100×[(Ti−Tz)/Tz]=−50.
The * or ** mark the lowest or highest tested concentrations. […] Both uM and μM stand for micromolar.

Data set [3] concerns JEG3. Briefly: Single agent activity, panel of 81 cancer cell lines plus PBMC. In kind it is cell-based. The following applies: Homo sapiens, JEG-3, lower end of range.
The test system of data set [4] is JIMT1. The description is as above. In kind it is cell-based. The following applies: Homo sapiens, JIMT-1.
Data set [5] relates to lung cancer cell lines. Briefly: cells. Conditions: read-out: Median etoposide concentration needed to reach GI50.
Description: (§1) Single agent as well as combination treatment growth inhibition effects were measured by ONCOLEAD.
(§2) Relative area above the dose-response curve (relAOC or AOC) were obtained as the area above the dose-response curve in the dose range between 1E-3M and 1E-10M.
For data set [6], the system named is colon cancer cell lines. Nature of the data set: cells. The following applies: read-out: Median etoposide concentration needed to reach GI50.
Description: as §1, §2
The subject of data set [7] is CACO2. Briefly: cells. Conditions: Homo sapiens, Caco-2, read-out: GI50 of etoposide (±Compound 1).
Description: (§3) Cell growth and treatment were performed in 96-well microtitre plates CELLSTAR® (Greiner Bio-One, Germany). Cells harvested from exponential phase cultures by trypsinization or by splitting (in the case of cells growing in suspension) were plated in 90 μl of media at optimal seeding densities. The optimal seeding density for each cell line was determined to ensure exponential growth for the duration of the experiment. All cells growing without anticancer agents were sub-confluent by the end of the treatment, as determined by visual inspection.
(§4) 90 μl of cells, after a 48-hour pre-growth period, were treated by mixing with 10 μl of the compound-containing media (resulting in a final DMSO concentration of 0.1%). The cells were allowed to grow at 37° C. for 72 (or 120) hours.
(§5) Cells were fixed to the surface by addition of 10% TCA (for adherent growing cells) or 50% TCA (for semi-adherent growing cell or cells growing in suspension). After an hour of incubation at 4° C. plates were washed twice with 200 μl of deionized water and dried. Cells were then stained with 100 μl of 0.04% w/v SRB. […]
(§6) Using these measurements, cellular responses can be calculated for incomplete inhibition of cell growth (GI), complete inhibition of cell growth (TGI) and net loss of cells (LC) due to compound activity. […] TGI was calculated from Ti=Tz. […] It was calculated as 100×[(Ti−Tz)/Tz]=−50.
Data set [8] deals with HELA. Nature of the data set: cells. Conditions: Homo sapiens, read-out: GI50 of etoposide (±Compound 1).
Description: as §3, §4, §5, §6
Data set [9] deals with T24. Briefly: cells. Conditions: Homo sapiens, T-24, read-out: GI50 of etoposide (±Compound 1).
Description: as §3, §4, §5, §6
Data set [10] deals with SF268. Briefly: SRB growth inhibition, 93 cell lines panel. Conditions: Homo sapiens, SF-268, read-out: GI50 of etoposide (±Compound 1).
Description: (§7) Cell growth and treatment were performed in 96-well microtitre plates CELLSTAR® (Greiner Bio-One, Germany). Cells harvested from exponential phase cultures by trypsinization or by splitting (in the case of cells growing in suspension) were plated in 90 μl of media at optimal seeding densities. The optimal seeding density for each cell line was determined to ensure exponential growth for the duration of the experiment. All cells growing without anticancer agents were sub-confluent by the end of the treatment, as determined by visual inspection. […] The cells were allowed to grow at 37° C. for 72 (or 120) hours. […] Cells were fixed to the surface by addition of 10% TCA (for adherent growing cells) or 50% TCA (for semi-adherent growing cell or cells growing in suspension). After an hour of incubation at 4° C. plates were washed twice with 200 μl of deionized water and dried. Cells were then stained with 100 μl of 0.04% w/v SRB. The plates were incubated at room temperature for at least 30 min and washed six times with 1% acetic acid to remove unbound stain. […] Using these measurements, cellular responses can be calculated for incomplete inhibition of cell growth (GI), complete inhibition of cell growth (TGI) and net loss of cells (LC) due to compound activity. […] TGI was calculated from Ti=Tz.
Data set [11] concerns SKNAS. Briefly: SRB growth inhibition, 93 cell lines panel. Conditions: Homo sapiens, SK-N-AS, read-out: GI50 of etoposide (±Compound 1).
Description: as §7
For data set [12], the system named is SNB75. Briefly: SRB growth inhibition, 93 cell lines panel. Conditions: Homo sapiens, SNB-75, read-out: GI50 of etoposide (±Compound 1).
Description: as §7

Regarding `COc1ccc([C@@H](O)c2cc(-c3ncnc4cc(N5CCOCC5)ccc34)c(F)cc2Cl)nn1` [Compound 1, (S)-[2-chloro-4-fluoro-5-(7-morpholin-4-yl-quinazolin-4-yl)-phenyl]-(6-methoxy-pyridazin-3-yl)-methanol], the efficacy by schedule result in data set [1] (Compound 1 daily throughout the study vs separated from SoC by 7 h or days) is “better efficacy”. For the same compound, in data set [1] (SoC combined with Compound 1), the body weight change result is listed as “additional body weight loss”. For the same compound, the mean tumor volume in [1] (day 21, Compound 1 50 mg/kg daily + etoposide 4 mg/kg + cisplatin 3 mg/kg, n=10) worked out at 50 mm^3. The “decrease of mean tumor volume compared to starting volume” value in data set [1] (day 21, Compound 1 50 mg/kg daily + etoposide + cisplatin) is “about 67%”. For the same compound, in [1] (day 28, combination arm), the “animals showing complete response” value is reported as 4/10, the animals with regression is reported as 1/10 and the “animals with stable disease” value is 3/10. In addition, in data set [1] (day 28, combination arm (Compound 1 + SoC)), the animals progression free is 9/10. In addition, the antitumor activity entry in data set [1] (in combination with Etoposide and Cisplatin) was “significantly enhanced antitumor activity”.

As for `COc1cc([C@@H]2c3cc4c(cc3[C@@H](O[C@@H]3O[C@@H]5CO[C@@H](C)O[C@H]5[C@H](O)[C@H]3O)[C@H]3COC(=O)[C@H]23)OCO4)cc(OC)c1O` [Etoposide], the GI50 in data set [2] (read-out: Average GI50) is 1.7 µM; in [2] (read-out: Median GI50), 0.9 µM; in [2] (read-out: Most resistant cell line (GI50)), above 10 µM; in data set [2] (read-out: Most sensitive cell line (GI50)), 0.038 µM; in [3], 0.03 µM; in data set [4], above 10 µM. The GI50 in data set [5] came out at 0.32 µM; in [6], 0.7 µM; in [7], 3.65 µM; in data set [8], 2.36 µM; in [9] it was 2.53 µM; in data set [10] it was 1.97 µM. Besides, the values for the GI50 in data set [11] and in data set [12] were 2.15 µM and 3.79 µM, respectively.
